Measured values published in US8258100B2, “Ligand/lytic peptide methods of use” (Board of Supervisors of Louisiana State University and …, priority 1997, dated 2012).

Tests used:
DU145 cells = assay: in vitro lysis of human prostate cancer cells, Trypan blue exclusion; assay type: cell-based; settings: 22 hours; GnRH-hecate 50 μM; free hecate 30 μM; hecate-bLH 90 or 60 μM
Source text: LNCaP FGC and DU145 human prostate cancer cell lines were purchased from the American Type Culture Collection (ATCC, Rockville Md.), ATCC accession numbers CRL 1740 and HTB-81, respectively. The LNCaP FGC adenocarcinoma cell line was originally obtained from a person. LNCaP FGC cells are sensitive to dihydrotestosterone and to estrogens (A+). The DU145 carcinoma was originally isolated from the brain of a person with metastatic carcinoma of the prostate; this cell line is not sensitive to steroid hormones (A−).
Cells were detached from culture flasks, and 1000 cells/well were transferred to 24 well culture plates. The cells were incubated for 24 hours with 10% calf serum. Cells were subsequently incubated without serum for 48 hours. Cells were then incubated for 22 hours with one of the following treatments:
Trypan blue exclusion was used to assess viability of the cells after treatment. […] However, treatment with a lytic peptide alone may not be selective in vivo unless specific cell types are separately stimulated, for example by hormones controlling their activity.

[1] = tested on: pituitary basophilic (gonadotropic) cells; assay: rat pituitary gland sections in tissue culture, histology after treatment; assay type: cell-based; settings: ten hours after treatment, 37° C.; GnRH 5 ng/mL; hecate 50 μM; GnRH 5 ng/mL 15 minutes, wash, then hecate 50 μM; modified GnRH/hecate 50 μM
Procedure: The pituitary gland of an adult female rat was harvested and divided into six sections of approximately equal size. One section was placed in each of six wells containing tissue culture medium at 37° C. A different treatment was applied to each well, as described below. Ten hours after treatment, the tissue from each well was fixed, and the histology of each was examined microscopically.

[2] = tested on: sexually mature female rats; assay: sexually mature female rats, double intravenous treatment, necropsy two weeks later; assay type: in vivo, rat; settings: IV twice 24 hours apart, two weeks after, GnRH/hecate 2 x 0.5 mg, GnRH 162 μg then 15 minutes later hecate 337 μg
Source text: Eighteen sexually mature, mixed breed, female rats were randomly assigned to one of six groups containing three rats each. Each group of rats received a double treatment intravenously, as described below. Two weeks after the treatment, the rats were sacrificed and necropsied. The reproductive and endocrine organs were sectioned, weighed, and examined histologically.

[3] = tested on: bovine small luteal cells; assay: in vitro lysis of bovine small luteal cells (Trypan Blue exclusion, lactic dehydrogenase release); assay type: cell-based, cattle; settings: 22 hr incubation
Procedure: We studied in vitro lysis of bovine luteal cells with GnRH-hecate conjugate and with hecate-bLH conjugate (SEQ. ID NO. 12). (The bLH component of the conjugate is a 15-mer fragment of the beta chain of luteinizing hormone, SEQ. ID NO. 11). Small luteal cells were collected from cattle corpora lutea post-slaughter.
Small luteal cells in culture were incubated with one of the following treatments for 22 hours, and were then examined for viability using Trypan Blue exclusion and release of lactic dehydrogenase.

bovine granulosa cells = assay: in vitro lysis of bovine granulosa cells; assay type: cell-based; settings: hecate alone, versus small luteal cells
Source text: We also studied in vitro lysis of bovine granulosa cells with GnRH-hecate conjugate and with hecate-bLH conjugate. Granulosa cells were isolated from bovine pre-ovulatory follicles. (Granulosa cells are hormonally active cells with numerous LH receptors.) Our experiments with granulosa cells were otherwise generally similar to those described above for Examples 24-31.

## hecate: amphipathic lytic peptide; synthetic peptide analog of melittin (SEQ. ID NO. 2) (FALALKALKKALKKLKKALKKAL) [reference compound]
DU145 cells
  killing of cells (viability): killed by hecate alone
[1]
  histology of pituitary tissue after treatment: appeared normal
[2]
  ovarian function / histology: normal ovarian function
[3]; 1 μM
  cell death of small luteal cells: did not differ significantly from negative control
[3]; 5 μM
  killing of small luteal cells: approximately 50%
[3]; 10 μM
  killing of small luteal cells: Significant killing
Bovine granulosa cells
  susceptibility of granulosa cells to killing: much more susceptible to killing by hecate alone than were the small luteal cells
